Tested on: Plasmodium berghei
Assay: Luciferase/luciferin-expressing antifolate-resistant parasites were used to infect a culture of HepG2 cells that were pre-incubated with compounds. Infected hepatocytes emit light due to the luciferase reaction. Assay results are presented as the percent inhibition of light emission compared to control. […]
Type: functional
Details: sporozoite; for IC90: read-out: LUCIFERASE INFECTION ASSAY - IC90

In the case of Cc1cc(C(=O)CSc2nc3ccccc3[nH]2)c(C)n1CC1CCCO1 (configuration not stated), the IC50 (HEPG2TOX_HILL_SLOPE 3.03, HEPG2TOX_R_SQUARED 0.337, PBLUC_HILL_SLOPE 0.528, 1.10, PBLUC_R_SQUARED 0.856, 0.809, read-out: LUCIFERASE INFECTION ASSAY - IC50) is reported as 0.144 µM and the IC90 is reported as 4.43 µM.

C[C@]12CC[C@H](O)C[C@H]1CC[C@@H]1C2CC[C@]2(C)[C@@H](C3=CC(=O)OC3)[C@@H](O)C[C@]12O (some centres not stated) was tested, and the IC50 (HEPG2TOX_HILL_SLOPE 3.04, HEPG2TOX_R_SQUARED 0.92, PBLUC_HILL_SLOPE 1.95, PBLUC_R_SQUARED 0.451, read-out: LUCIFERASE INFECTION ASSAY - IC50) was 2.7 µM and the IC90 was 8.37 µM.

Cc1nnsc1-c1onc(C)c1C(=O)Nc1cc(Cl)cc(Cl)c1 was tested, and the IC50 (HEPG2TOX_HILL_SLOPE 2.99, HEPG2TOX_R_SQUARED 0.625, PBLUC_HILL_SLOPE 10.3, PBLUC_R_SQUARED 0.237, read-out: LUCIFERASE INFECTION ASSAY - IC50) was 8.32 µM and the IC90 was > 8.94 µM.

With O=C(NNc1ncc(C(F)(F)F)cc1Cl)c1c(Cl)cccc1Cl the IC50 (HEPG2TOX_HILL_SLOPE 3.04, HEPG2TOX_R_SQUARED 0.858, PBLUC_HILL_SLOPE 3.51, PBLUC_R_SQUARED 0.0313, read-out: LUCIFERASE INFECTION ASSAY - IC50) was 6.25 µM and the IC90 was > 8.58 µM.

Work on O=C(Nc1ccccc1C(=O)Nc1nnc(C(F)(F)F)s1)c1ccccc1Cl yielded an IC50 (HEPG2TOX_HILL_SLOPE 2.99, HEPG2TOX_R_SQUARED 0.762, PBLUC_HILL_SLOPE 9.09, PBLUC_R_SQUARED 0.594, read-out: LUCIFERASE INFECTION ASSAY - IC50) of 2.13 µM and an IC90 of 2.71 µM.

COc1cccc(/C=C/c2nnc(O)c(C#N)c2C)c1 gave an IC50 (HEPG2TOX_HILL_SLOPE 3.05, HEPG2TOX_R_SQUARED 0.959, PBLUC_HILL_SLOPE 3.8, PBLUC_R_SQUARED 0.551, read-out: LUCIFERASE INFECTION ASSAY - IC50) of 3.79 µM and an IC90 of 6.75 µM.

With Clc1ccc(-c2csc3ncnc(Sc4nnnn4C4CC4)c23)cc1 the IC50 (HEPG2TOX_HILL_SLOPE 2.99, HEPG2TOX_R_SQUARED 0.963, PBLUC_HILL_SLOPE 2.19, PBLUC_R_SQUARED 0.132, read-out: LUCIFERASE INFECTION ASSAY - IC50) was 8.41 µM and the IC90 was > 10 µM.

With CCOc1ccc(/C=N/NC(=O)c2cc3c(s2)CCCC3)c(O)c1 the IC50 (HEPG2TOX_HILL_SLOPE 3.02, HEPG2TOX_R_SQUARED 0.79, PBLUC_HILL_SLOPE 4.8, PBLUC_R_SQUARED 0.349, read-out: LUCIFERASE INFECTION ASSAY - IC50) was 6.97 µM and the IC90 was > 10 µM.

CCN1C(=O)N(CCCc2cccnc2)C(=O)C12CCN(Cc1cnc(-c3ccccc3)s1)CC2 was tested, and the IC50 (HEPG2TOX_HILL_SLOPE 2.98, HEPG2TOX_R_SQUARED 0.92, PBLUC_HILL_SLOPE 12.2, PBLUC_R_SQUARED 0.164, read-out: LUCIFERASE INFECTION ASSAY - IC50) was 6.3 µM and the IC90 was > 6.74 µM.

With Cc1noc(CSc2nnc(Nc3ccc(OC(F)(F)F)cc3)s2)n1 the IC50 (HEPG2TOX_HILL_SLOPE 3.01, HEPG2TOX_R_SQUARED 0.966, PBLUC_HILL_SLOPE 1.72, PBLUC_R_SQUARED 0.424, read-out: LUCIFERASE INFECTION ASSAY - IC50) was 4.45 µM and the IC90 was > 10 µM.

CN(C)c1ccc(CNc2nccc3nc(-c4ccc(F)c(F)c4)[nH]c23)cc1 was tested, and the IC50 (HEPG2TOX_HILL_SLOPE 2.98, HEPG2TOX_R_SQUARED 0.951, PBLUC_HILL_SLOPE 0.962, PBLUC_R_SQUARED 0.864, read-out: LUCIFERASE INFECTION ASSAY - IC50) was 0.941 µM and the IC90 was 9.24 µM.

O=C(Nn1cn[nH]c1=S)c1ccc2ccccc2n1 was tested, and the IC50 (HEPG2TOX_HILL_SLOPE 3, HEPG2TOX_R_SQUARED 0.551, PBLUC_HILL_SLOPE 3.2, PBLUC_R_SQUARED 0.429, read-out: LUCIFERASE INFECTION ASSAY - IC50) was 5.8 µM and the IC90 was > 10 µM.

In the case of c1ccc2c(CN3CCN(c4ncnc5sccc45)CC3)csc2c1, the IC50 (HEPG2TOX_HILL_SLOPE 3.07, HEPG2TOX_R_SQUARED 0.815, PBLUC_HILL_SLOPE 3.96, PBLUC_R_SQUARED 0.666, read-out: LUCIFERASE INFECTION ASSAY - IC50) is reported as 6.85 µM and the IC90 is reported as > 10 µM.

Cc1ccc(Sc2ccc(NC(=O)C3CCN(C(=O)c4ccoc4)CC3)cc2)c(C)c1 showed an IC50 (HEPG2TOX_HILL_SLOPE 3.01, HEPG2TOX_R_SQUARED 0.581, PBLUC_HILL_SLOPE 14.8, 16.7, PBLUC_R_SQUARED 0.181, 0.0620, read-out: LUCIFERASE INFECTION ASSAY - IC50) of 9.11 µM and an IC90 of 9.64 µM.

CC(C)(C)c1cc(NS(=O)(=O)c2cc(C(F)(F)F)cc(C(F)(F)F)c2)c(C#N)s1 showed an IC50 (HEPG2TOX_HILL_SLOPE 3.04, HEPG2TOX_R_SQUARED 0.973, PBLUC_HILL_SLOPE 26.7, PBLUC_R_SQUARED 0.729, read-out: LUCIFERASE INFECTION ASSAY - IC50) of 2.35 µM and an IC90 of 2.55 µM.

Cc1ccccc1C(=O)Nc1nc2ccccn2c1C(=O)NC1CCCCC1 was tested, and the IC50 (HEPG2TOX_HILL_SLOPE 2.99, HEPG2TOX_R_SQUARED 0.96, PBLUC_HILL_SLOPE 20.4, PBLUC_R_SQUARED 0.198, read-out: LUCIFERASE INFECTION ASSAY - IC50) was 7.88 µM and the IC90 was > 8.77 µM.

In the case of CCN(CC)C(=O)c1ccc(Nc2nc(C(F)(F)F)nc3ccccc23)cc1, the IC50 (HEPG2TOX_HILL_SLOPE 3.04, HEPG2TOX_R_SQUARED 0.82, PBLUC_HILL_SLOPE 1.45, PBLUC_R_SQUARED 0.471, read-out: LUCIFERASE INFECTION ASSAY - IC50) is reported as 5.81 µM and the IC90 is reported as > 10 µM.

Compound CCc1cccc2c(C(=O)COC(=O)C34CC5CC(CC(O)(C5)C3)C4)c[nH]c12 has an IC50 (HEPG2TOX_HILL_SLOPE 2.99, HEPG2TOX_R_SQUARED 0.981, PBLUC_HILL_SLOPE 3.51, PBLUC_R_SQUARED 0.785, read-out: LUCIFERASE INFECTION ASSAY - IC50) of 2.46 µM and an IC90 of 4.59 µM.

For Cc1nc2ccc(N/N=C3\C=CC(=O)c4ncccc43)cc2s1, the IC50 (HEPG2TOX_HILL_SLOPE 2.99, HEPG2TOX_R_SQUARED 0.974, PBLUC_HILL_SLOPE 13.8, PBLUC_R_SQUARED 0.408, read-out: LUCIFERASE INFECTION ASSAY - IC50) was 3.46 µM and the IC90 was 4.05 µM.

O=C(Nc1nc2ccccc2[nH]1)c1oc2ccccc2c1CSCc1ccccc1 was tested, and the IC50 (HEPG2TOX_HILL_SLOPE 3.05, HEPG2TOX_R_SQUARED 0.924, PBLUC_HILL_SLOPE 8.31, PBLUC_R_SQUARED 0.524, read-out: LUCIFERASE INFECTION ASSAY - IC50) was 3.92 µM and the IC90 was 5.1 µM.

Cc1ccc(NC(=O)Nc2ccc3nc(Cc4ccccc4)nn3c2)cc1 showed an IC50 (HEPG2TOX_HILL_SLOPE 3.07, HEPG2TOX_R_SQUARED 0.95, PBLUC_HILL_SLOPE 55.2, PBLUC_R_SQUARED 0.375, read-out: LUCIFERASE INFECTION ASSAY - IC50) of 2.02 µM and an IC90 of 2.11 µM.

In the case of Clc1ccc(SCc2cc(N3CCCCC3)nc(-c3ccccn3)n2)cc1, the IC50 (HEPG2TOX_HILL_SLOPE 3.02, HEPG2TOX_R_SQUARED 0.983, PBLUC_HILL_SLOPE 17.6, PBLUC_R_SQUARED 0.462, read-out: LUCIFERASE INFECTION ASSAY - IC50) is reported as 2.35 µM and the IC90 is reported as 2.67 µM.

For Cc1nccnc1-c1ccnn1C(=O)Nc1cc(Cl)cc(Cl)c1, the IC50 (HEPG2TOX_HILL_SLOPE 3.03, HEPG2TOX_R_SQUARED 0.982, PBLUC_HILL_SLOPE 8.5, PBLUC_R_SQUARED 0.804, read-out: LUCIFERASE INFECTION ASSAY - IC50) was 0.372 µM and the IC90 was 0.481 µM.

Cc1cc(C(=O)Cn2nnc3ccccc3c2=O)c(C)n1-c1ccccc1 showed an IC50 (HEPG2TOX_HILL_SLOPE 3.03, HEPG2TOX_R_SQUARED 0.216, PBLUC_HILL_SLOPE 10.9, PBLUC_R_SQUARED 0.324, read-out: LUCIFERASE INFECTION ASSAY - IC50) of 0.0369 µM and an IC90 of 0.0451 µM.

Cc1nc2n(C)c3ccccc3[n+]2c(C)c1C was tested, and the IC50 (HEPG2TOX_HILL_SLOPE 3.01, HEPG2TOX_R_SQUARED 0.767, PBLUC_HILL_SLOPE 4.79, PBLUC_R_SQUARED 0.113, read-out: LUCIFERASE INFECTION ASSAY - IC50) was 6.7 µM and the IC90 was > 10 µM.

With Cc1cccc(OC2=C(Cl)C(=O)c3ccccc3C2=O)c1 the IC50 (HEPG2TOX_HILL_SLOPE 2.98, HEPG2TOX_R_SQUARED 0.916, PBLUC_HILL_SLOPE 1.18, PBLUC_R_SQUARED 0.608, read-out: LUCIFERASE INFECTION ASSAY - IC50) was 5.41 µM and the IC90 was > 11 µM.

Compound COc1ccc(-c2cnc3ccc(-c4cccc(F)c4)nn23)cc1OC has an IC50 (HEPG2TOX_HILL_SLOPE 3.03, HEPG2TOX_R_SQUARED 0.965, PBLUC_HILL_SLOPE 7.81, PBLUC_R_SQUARED 0.531, read-out: LUCIFERASE INFECTION ASSAY - IC50) of 0.958 µM and an IC90 of 1.27 µM.

COc1ccc(-c2cnc3cnc(-c4ccco4)cn23)cc1 showed an IC50 (HEPG2TOX_HILL_SLOPE 2.99, HEPG2TOX_R_SQUARED 0.923, PBLUC_HILL_SLOPE 3.57, PBLUC_R_SQUARED 0.717, read-out: LUCIFERASE INFECTION ASSAY - IC50) of 4.15 µM and an IC90 of 7.67 µM.

Cc1nc2ncnn2c(Nc2cccc(Cl)c2C)c1Cl was tested, and the IC50 (HEPG2TOX_HILL_SLOPE 3, HEPG2TOX_R_SQUARED 0.869, PBLUC_HILL_SLOPE 3.03, PBLUC_R_SQUARED 0.114, read-out: LUCIFERASE INFECTION ASSAY - IC50) was 5.55 µM and the IC90 was > 10.7 µM.

CN(CC(=O)Nc1ccccc1N1CCCCCC1)S(=O)(=O)c1ccccc1C#N was tested, and the IC50 (HEPG2TOX_HILL_SLOPE 3.04, HEPG2TOX_R_SQUARED 0.862, PBLUC_HILL_SLOPE 1.2, PBLUC_R_SQUARED 0.365, read-out: LUCIFERASE INFECTION ASSAY - IC50) was 9.69 µM and the IC90 was > 10 µM.

COc1cc2c(C#N)c(N3CCN(c4ccccc4OC)CC3)nc(N)c2c(N)n1 gave an IC50 (HEPG2TOX_HILL_SLOPE 3.01, HEPG2TOX_R_SQUARED 0.942, PBLUC_HILL_SLOPE 1.46, PBLUC_R_SQUARED 0.909, read-out: LUCIFERASE INFECTION ASSAY - IC50) of 1.04 µM and an IC90 of 4.7 µM.
